Where a name gives a salt, the structure may show the parent alone. Read-outs that look alike come from different tables or passages of the source.
Tests used:
[1] = target: T1, strychnine insensitive glycine binding site (NMDA receptor complex) (Rattus norvegicus, UniProt P35439); experiment: affinity for strychnine insensitive glycine binding site
T1 construct: from tissue

[2] = test system: NMDA induced convulsions in mice; experiment: inhibition of NMDA induced convulsions in mice; format: in vivo; settings: Mus musculus, dose to protect 50 % of the animals from NMDA (intracerebroventricular) convulsions
Description: In this test the ability of the compound to inhibit the generalized seizures induced by an intracerebroventricular injection of NMDA in mice was examined at a number of dose levels. […] This expressed as mg/kg is referred to as the ED50 value.

[3] = test system: anaesthetised cats; experiment: adverse effects in anaesthetised cats; format: in vivo, cat; settings: doses up to 24 mg/kg
Description: (§1) The compounds of the invention are essentially non toxic at therapeutically useful doses.

[4] = test system: conscious dogs; experiment: adverse effects in conscious dogs; format: in vivo, dog; settings: doses up to 24 mg/kg
Description: as §1

[5] = strychnine insensitive glycine binding site, read-out: pKi (converted)
[6] = intravenous, read-out: ED50 i.v

Compound | Ki [1, 5] | further results
O=C(O)c1[nH]c2cc(Cl)cc(Cl)c2c1C=C1CON(c2ccccc2)C1=O [Example 26, 4,6-Dichloro-3-(3-oxo-2-phenyl-isoxazolidin-4-ylidenemethyl)-1H-indole-2-carboxylic acid] | 0.0759 µM | –
O=C(O)c1[nH]c2cc(Cl)cc(Cl)c2c1/C=C1/NC(=O)N(c2ccccc2)C1=O [Example 14, (E) 4,6Dichloro-3-(2.5-dioxo-1-phenyl-imidazolidin-4-ylidenemethyl)-1H-indole-2-carboxylic acid] | 0.0741 µM | –
O=C([O-])c1[nH]c2cc(Cl)cc(Cl)c2c1/C=C1\CCN(c2ccccc2)C1=O.[Na+] [Example 3, (E)4,6-dichloro-3-(2oxo-1-phenyl-pyrrolidin-3-ylidenemethyl) -1H-indole-2-carboxylic acid sodium salt] | – | Ki [1]: 0.0513 µM; ED50 [2, 6]: 0.08 mg/kg; ED50 ([2]; oral, read-out: ED50 po): 3.83 mg/kg
O=C(O)c1[nH]c2cc(Cl)cc(Cl)c2c1/C=C1\NC(=O)N(c2ccccc2)C1=O [Example 12, (Z) 4,6-Dichloro-3-(2,5dioxo-1-phenyl-imidazolidin-4-ylidenemethyl)-l H-indole-2-carboxylic acid] | 0.0372 µM | –
O=C(O)c1[nH]c2cc(Cl)cc(Cl)c2c1/C=C1\CNN(c2ccccc2)C1=O [Example 8, (E) 4,6-dichloro-3-(5oxy-1-phenyl-pyrazolidin-4ylidenemethyl)-1H-indole-2-carboxylic acid sodium salt] | 0.01 µM | ED50 [2, 6]: 0.1 mg/kg; ED50 ([2]; oral, read-out: ED50 po): 1.7 mg/kg; adverse affects when administered [3]: no adverse affects; adverse affects when administered [4]: no adverse affects
Nc1cccc(N2NC/C(=C\c3c(C(=O)O)[nH]c4cc(Cl)cc(Cl)c34)C2=O)c1 [Example 27, (E) 4,6dichloro-3[(5-oxo-1-(3-aminophenyl))pyrazolidin-4-ylidenemethyl]-1H-indole-2-carboxylic acid hydrochloride salt] | 0.02 µM | –
O=C(O)c1[nH]c2cc(Cl)cc(Cl)c2c1/C=C1\CCCN(c2ccccc2)C1=O [Example 6, (E)4,6-dichloro-3-(2-oxo-1-phenyI-piperidin-3-ylidenemethyl)-1H-indole-2-carboxylic acid sodium salt] | 0.049 µM | ED50 [2, 6]: 0.09 mg/kg; ED50 ([2]; oral, read-out: ED50 po): 7.5 mg/kg
CN1C/C(=C\c2c(C(=O)O)[nH]c3cc(Cl)cc(Cl)c23)C(=O)N1c1ccccc1 [Example 23, (E) 3[(2-methyl-5-oxo-1-phenyl)pyrazolidin-4-ylidenemethyl]-4,6-dichloro-1H-indole-2-carboxylic acid] | 0.0347 µM | –
CC(=O)Nc1ccc(N2NCC(=Cc3c(C(=O)O)[nH]c4cc(Cl)cc(Cl)c34)C2=O)cc1 [Example 18, 4.6-Dichloro-3-[5-oxo1-(4-acetylamino-phenyl)-pyrazolidin-4-ylidenemethyl]-1H-indole-2-carboxylic acid] | 0.02 µM | –
O=C(O)c1[nH]c2cc(Cl)cc(Cl)c2c1/C=C1\CC(=O)N(c2ccccc2)C1=O [Example 28, (E) 4,6dichloro-3-(2.5-dioxo-1-phenyl-pyrrolidin-3-ylidenemethyl)-1H-indole-2-carboxylic acid] | 0.0417 µM | –
CS(=O)(=O)Nc1ccc(N2NCC(=Cc3c(C(=O)O)[nH]c4cc(Cl)cc(Cl)c34)C2=O)cc1 [Example 22, 4,6Dichloro-3-[1-(4-methylsulfamidophenyl)-5-oxo-pyrazolidin4-ylidenemrthyl]-1H-indole-2-carboxylic acid] | 0.0219 µM | –
NC(=O)Nc1ccc(N2NCC(=Cc3c(C(=O)O)[nH]c4cc(Cl)cc(Cl)c34)C2=O)cc1 [Example 20, 4,6-Dichloro-3-[5-oxo-1-(4-ureido-phenyl)-pyrazolidin-4-ylidenemethyl]-1H-indole-2-carboxylic acid] | 0.0204 µM | –
O=C(O)c1[nH]c2cc(Cl)cc(Cl)c2c1/C=C1\CNN(c2cccc3ccccc23)C1=O [Example 34, (E) 4,6-dichloro-3(5-oxo-1(1-naphthyl)-pyrazolidin-4-ylidenemethyl)-1H-indole-2-carboxylic acid] | 0.049 µM | –
Nc1ccc(N2NC/C(=C\c3c(C(=O)O)[nH]c4cc(Cl)cc(Cl)c34)C2=O)cc1 [Example 10, (E) 4,6dichloro-3-[(5-oxo-1-(4-aminophenyl))pyrazolidin-4-ylidenemethyl]-1H-indole-2-carboxylic acid hydrochloride salt] | 0.0148 µM | ED50 [2, 6]: 0.1 mg/kg; ED50 ([2]; oral, read-out: ED50 po): 1.7 mg/kg
